According to article PMC6136660 (Steroids, 2018):

Experiment: Clinical safety (treatment-emergent adverse events, MTD, NOAEL), MAD
Type: in vivo
Experimental: The MAD part of the study was initiated after a review of safety and PK data from SAD cohorts 1 to 6. In the MAD part, 4 cohorts containing 8 subjects each were randomized to receive vamorolone or placebo, in a 3:1 ratio, once daily (QD) for 14 days. The duration of dosing in the MAD part was determined based on the PK data from the SAD part. In each cohort, 3 sentinel subjects were administered vamorolone or placebo, in a 2:1 ratio.
After completion of all scheduled safety follow-up visits for a given cohort, the SRC reviewed all available PK and safety data (AEs, physical examination findings, ECGs, vital signs, and clinical laboratory tests) in a blinded manner for the completed cohort prior to making a decision to escalate to the next higher dose level.
Dose escalation in the MAD part was to proceed according to protocol until the MTD was identified. The dose escalation stopping criteria, as listed above in the SAD section, comprised the halting rules for the MAD part. If any of these criteria were met during the 14-day dosing duration in the MAD part, dosing in that cohort was to be halted and no further dose escalation was to occur. If AEs/SAEs occurred more frequently in subjects treated with vamorolone compared to subjects treated with placebo, the SRC was to determine if dose escalation could continue. If dose escalation was terminated, the remaining cohorts could be enrolled to evaluate the safety and PK effects of vamorolone for dose levels between the previously tolerated dose and the dose level at which dose escalation was terminated. Once safety data from additional cohort(s) was assessed, the MTD was defined as the dose level below the dose at which the SRC determined there was an unacceptable risk to subjects.

C[C@@H]1C[C@H]2[C@@H]3CCC4=CC(=O)C=C[C@]4(C)C3=CC[C@]2(C)[C@@]1(O)C(=O)CO [vamorolone]
subjects experiencing TEAEs (MAD 1.0 mg/kg): 2 subjects | subjects experiencing TEAEs (MAD 3.0 mg/kg): none | subjects experiencing TEAEs (MAD 9.0 mg/kg): none | subjects experiencing TEAEs (MAD 20 mg/kg): 2 subjects | maximum tolerated dose (MTD) (MAD up to 20 mg/kg/day): not reached | severe adverse events (any SAD or MAD dose group): no severe adverse events | NOAEL at 14 days (human, in vivo, oral, highest dose tested, 14 days): 20 mg/kg/day | liver finding thought to be drug related (one subject, 20 mg/kg/day MAD cohort, dosing halted): mild elevations of liver enzymes
